Source: patent publication US20020004611A1 (Cargill, Incorporated, priority 1997, published 2002)

How the values were obtained:
Format in all cases: physicochemical
[1] = Single stage extraction of lactic acid from fermentation broth with different solvents (Example 20); details: broth pH 3.87
Source text: Fermentation broth with a final pH value of 3.87 and a total lactate material concentration of 79 g/liter as determined by high performance liquid chromatography was obtained. A number of different solvents were contacted with the broth to determine the lactic acid recovery in a single stage. […] For the 100% Alamine 336 solvent, two organic phases were isolated and titrated and both values are reported. The partition coefficient is not reported for this system.

[2] = Chiral purity of lactic acid after heating during triethylamine evaporation (Example 5)
Protocol: The back extraction was scaled up to allow the distillation experiment. […] The triethylamine evaporated initially at 23° C. and 10 mm Hg. […] About 69% of the triethylamine evaporated out. […].
The remaining mixture was heated to 110° C. where it was held for 80 minutes. At this point, 96% of the triethylamine was evaporated.

[3] = Back extraction of lactic acid from Alamine 336 into second polar liquid phase (Example 4)
Protocol: Two solutions of lactic acid and […] 336 were made by contacting the […] […] The samples were held at the specified temperature in an oil bath for about 45 to 60 minutes with regular mixing. […] A similar procedure was used for contacting […] […] Phases were allowed to settle at specified temperature and then quickly separated by piping out the bottom phase. […] 336 concentrations. In all cases, the […] 336 phase was the least dense phase or the top phase. […] 336 concentrations in the top and bottom phases. […] In some of the solvents, there was a significant amount of […] 336 co-extracted into the polar liquid phase. Dimethyl sulfoxide looks like a favorable solvent for this type of process because of the good selectivity for the lactic acid over the […] 336.

[4] = Three successive contacts of fermentation broth with fresh extracting solvent (Example 21); details: 89 wt % Alamine 336, 9 wt % dodecanol, 2 wt % IsoPar K; for Lactic Acid Aqueous Phase wt % / Lactic Acid Organic Phase wt %: aqueous to organic phase ratio 3.0
Source text: Fermentation broth with a final pH of 3.87 and a total lactate material concentration of 79 g/liter as determined by high performance liquid chromatography was obtained.

[5] = solvent 30 wt % TOPO, 70 wt % MIBK
[6] = solvent 82 wt % A336, 10 wt % OctOH, 8 wt % IPK
[7] = solvent 89 wt % A336, 9 wt % DodecOH, 2 wt % IPK

CC(O)C(=O)O (stereo not drawn) [lactic acid, 2-hydroxypropionic acid]
Lactic Acid Aqueous Phase wt % [1, 5]: 2.24 wt % | Lactic Acid Organic Phase wt % [1, 5]: 2.36 wt % | Partition Coefficient [1, 5]: 1.05 | Lactic Acid Aqueous Phase wt % [1, 6]: 1.52 wt % | Lactic Acid Organic Phase wt % [1, 6]: 5.09 wt % | Partition Coefficient [1, 6]: 3.35 | Lactic Acid Aqueous Phase wt % [1, 7]: 4.76 wt % | Lactic Acid Organic Phase wt % [1, 7]: 1.84 wt % | Partition Coefficient [1, 7]: 2.6 | Lactic Acid Aqueous Phase wt % ([1]; solvent 100% A336): 2.34 wt % | chiral purity after heating ([2]; 21.5 wt % lactic acid in triethylamine and N-methyl-2-pyrrolidinone, 55° C. 10 mm Hg two hours, then 110° C. 80 minutes): not significantly changed | chiral purity of the lactic acid after heating ([2]; 43 wt % lactic acid in triethylamine, 10 mm Hg, heated to 120° C., held 90 minutes): not changed significantly | Partition Coefficient (lactic acid, Alamine 336 top phase / bottom polar liquid phase) ([3]; solvent Lactide, 140 °C): 0.82 | Lactic acid Wt % ([3]; solvent Lactide, 140 °C, Bottom phase, calculated from overall mass balance): 2.98^2 Wt % | Lactic acid Wt % ([3]; solvent Lactide, 140 °C, Top (Alamine 336) phase): 2.44 Wt % | Partition Coefficient (lactic acid, Alamine 336 top phase / bottom polar liquid phase) ([3]; solvent NMP, 90 °C): 0.29 | Lactic acid Wt % ([3]; solvent NMP, 90 °C, Bottom (polar liquid) phase): 1.13 Wt % | Lactic acid Wt % ([3]; solvent NMP, 90 °C, Top (Alamine 336) phase): 0.33 Wt % | Partition Coefficient (lactic acid, Alamine 336 top phase / bottom polar liquid phase) ([3]; solvent NMP, 110 °C): 0.22 | Lactic acid Wt % ([3]; solvent NMP, 110 °C, Bottom (polar liquid) phase): 12.2 Wt % | Lactic acid Wt % ([3]; solvent NMP, 110 °C, Top (Alamine 336) phase): 2.73 Wt % | Partition Coefficient ([4]; Stage 1): 2.5 | Lactic Acid Aqueous Phase wt % ([4]; Stage 1): 1.55 wt % | Lactic Acid Organic Phase wt % ([4]; Stage 1): 3.9 wt % | Partition Coefficient ([4]; Stage 2): 1.25 | Lactic Acid Aqueous Phase wt % ([4]; Stage 2): 1.09 wt % | Lactic Acid Organic Phase wt % ([4]; Stage 2): 1.36 wt % | Partition Coefficient ([4]; Stage 3): 0.84 | Lactic Acid Aqueous Phase wt % ([4]; Stage 3): 0.88 wt % | Lactic Acid Organic Phase wt % ([4]; Stage 3): 0.74 wt %
